Experimental data from publication PMC5024008 (American Journal of Transplantation, 2015).

Legend:
[1] = ABT-450 200 mg and 250 mg for 12 to 24 weeks; HCV-infected patients; cited from earlier work
[2] = Effect of a single dose of cyclosporine on DAA steady-state pharmacokinetics; type: in vivo, human (healthy volunteers); details: for change in pharmacokinetic parameters: by cyclosporine and tacrolimus, steady-state 3D regimen
[3] = type: in vivo, human (healthy volunteers)

With `Cc1cnc(C(=O)N[C@H]2CCCCC/C=C\[C@@H]3C[C@@]3(C(=O)NS(=O)(=O)C3CC3)NC(=O)[C@@H]3C[C@@H](Oc4nc5ccccc5c5ccccc45)CN3C2=O)cn1` [ABT-450] as the molecule, how does the safety and tolerability [1] read?
Its safety and tolerability is “safe and well tolerated”.

For `COc1c(-c2ccc3cc(NS(C)(=O)=O)ccc3c2)cc(-n2ccc(=O)[nH]c2=O)cc1C(C)(C)CO` [Dasabuvir M1], which “change in pharmacokinetic parameters” value [2] is on record?
The value was at most 34%.

With `COc1c(-c2ccc3cc(NS(C)(=O)=O)ccc3c2)cc(-n2ccc(=O)[nH]c2=O)cc1C(C)(C)C` [Dasabuvir, dasabuvir] as the molecule, how does the “change in pharmacokinetic parameters” value [2] read?
Its value is at most 34%.

With `COC(=O)N[C@H](C(=O)N1CCC[C@H]1C(=O)Nc1ccc([C@@H]2CC[C@@H](c3ccc(NC(=O)[C@@H]4CCCN4C(=O)[C@@H](NC(=O)OC)C(C)C)cc3)N2c2ccc(C(C)(C)C)cc2)cc1)C(C)C` [Ombitasvir, ombitasvir] as the molecule, how does the “change in steady-state exposures (Cmax and AUC)” value ([2]; in the presence of cyclosporine or tacrolimus vs absence) read?
The value was at most 15%.

For `CC(C)c1nc(CN(C)C(=O)N[C@H](C(=O)N[C@@H](Cc2ccccc2)C[C@H](O)[C@H](Cc2ccccc2)NC(=O)OCc2cncs2)C(C)C)cs1` [Ritonavir, ritonavir], which “change in pharmacokinetic parameters” value [2] is on record?
Its value is at most 34%.

For `C=CC[C@@H]1/C=C(\C)C[C@H](C)C[C@H](OC)[C@H]2O[C@@](O)(C(=O)C(=O)N3CCCC[C@H]3C(=O)O[C@H](/C(C)=C/[C@@H]3CC[C@@H](O)[C@H](OC)C3)[C@H](C)[C@@H](O)CC1=O)[C@H](C)C[C@@H]2OC` [tacrolimus], which AUC(0-inf) ([3]; human, whole blood, oral, 2 mg) is on record?
The AUC(0-inf) was 118 ng·h/mL.

What about the Cmax ([3]; human, whole blood, oral, 2 mg) of the same molecule?
The Cmax was 11 ng/mL.

What about the Tmax ([3]; human, whole blood, oral, 2 mg) of the same molecule?
Its Tmax is 1.8 h.

And the concentration at 12 h ([3]; human, whole blood, oral, 2 mg)?
The concentration at 12 h was 1.6 ng/mL.

What about the concentration at 24 h ([3]; human, whole blood, oral, 2 mg) of the same molecule?
The concentration at 24 h was 1.1 ng/mL.

What about the “delay in Tmax” value ([3]; in the presence of the 3D regimen at steady state vs tacrolimus alone) of the same molecule?
Its value is 3.2 h.

And the “dose-normalized C24 with 3D relative to dose-normalized C12 alone” value ([3]; tacrolimus with steady-state 3D regimen vs tacrolimus alone)?
The value was 11 fold.
